Tests used:
[1] = molecular target: T1, human μ-opioid receptor (Homo sapiens, UniProt P35372); experiment: biochemical; format: binding
T1 construct: expressed in transfected cells; host or cells: HEK-293 cells

[2] = rat, in vivo
[3] = male, Sprague-Dawley, rat, in vivo, 0.5 mg/kg

T1 sequence (P35372 whole entry): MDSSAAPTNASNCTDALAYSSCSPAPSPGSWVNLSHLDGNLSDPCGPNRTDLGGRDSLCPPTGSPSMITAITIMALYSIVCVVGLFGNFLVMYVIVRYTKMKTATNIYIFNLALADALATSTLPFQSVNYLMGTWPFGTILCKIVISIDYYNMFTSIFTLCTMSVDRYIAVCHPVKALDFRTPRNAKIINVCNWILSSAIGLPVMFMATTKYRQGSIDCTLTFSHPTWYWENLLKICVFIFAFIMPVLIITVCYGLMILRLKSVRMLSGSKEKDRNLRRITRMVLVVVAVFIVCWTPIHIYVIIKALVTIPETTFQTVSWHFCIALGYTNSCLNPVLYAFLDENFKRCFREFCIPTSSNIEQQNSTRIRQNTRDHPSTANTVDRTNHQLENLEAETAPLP

CN(CCNC(=O)[C@@H](N)CCCNC(=N)N)C(=O)Oc1ccc2c3c1OC1C(=O)CCC4[C@@H](C2)N(C)CC[C@]314 (stereo partly drawn) [Example 1, Hydromorphone 3-(N-methyl-N-(2-arginylamino))ethylcarbamate]
IC50 [1]: 2100 nM

CC(=O)N[C@@H](CCCNC(=N)N)C(=O)NCCN(C)C(=O)Oc1ccc2c3c1OC1C(=O)CCC4[C@@H](C2)N(C)CC[C@]314 (stereo partly drawn) [Example 3, Hydromorphone 3-(N-methyl-N-(2-N′-acetylarginylamino))ethylcarbamate]
IC50 [1]: 1300 nM

CN(CCNC(=O)[C@H](CCCNC(=N)N)NC(=O)c1ccc2c(c1)OCO2)C(=O)Oc1ccc2c3c1OC1C(=O)CCC4[C@@H](C2)N(C)CC[C@]314 (stereo partly drawn) [Example 6, Hydromorphone 3-(N-methyl-N-(N′-piperonyl-2-arginylamino))ethylcarbamate]
IC50 [1]: 790 nM

CN(CCNC(=O)[C@@H](N)CCCCN)C(=O)Oc1ccc2c3c1OC1C(=O)CCC4[C@@H](C2)N(C)CC[C@]314 (stereo partly drawn) [Example 7, Hydromorphone 3-(N-methyl-N-(2-lysinylamino))ethylcarbamate]
IC50 [1]: 790 nM

CN(CCN)C(=O)Oc1ccc2c3c1O[C@H]1C(=O)CC[C@@]4(O)[C@@H](C2)[N+](C)(CC2CC2)CC[C@]314.Cl.[Cl-] (stereo partly drawn) [Example 19]
pharmacokinetic profile (e.g. oral bioavailability), FIG. 1 ([2]; 20 mg/kg): improved pharmacokinetic profile
Cmax value compared to (R)-N-methylnaltrexone ([2]; po): superior

C[N@+]1(CC2CC2)CC[C@]23c4c5ccc(O)c4O[C@H]2C(=O)CC[C@@]3(O)[C@H]1C5 [N-methylnaltrexone, (R)—N-methylnaltrexone, reference compound]
Cmax N-MTX following PO dosing ([2]; 20 mg/kg): 6 ng/mL
pharmacokinetic profile (e.g. oral bioavailability), FIG. 1 ([2]; 20 mg/kg): poor pharmacokinetic profile

CN1CC[C@]23c4c5ccc(O)c4O[C@H]2C(=O)CC[C@@]3(O)[C@H]1C5 [oxymorphone]
Cmax OM following IV dosing [3]: 432 ng/mL
